Data as given in patent publication US20260209242A1, “CAMPTOTHECIN DERIVATIVE, PHARMACEUTICAL COMPOSITION, AND PREPARATION METHOD AND USE THEREFOR” (priority 2022, published 2026).
Where two headings read alike, the source gives them in different places.

How the values were obtained:
Type in all cases: cell-based
[1] = tested on: MDA-MB-468; assay: Inhibition of proliferation of cells MDA-MB-468 (CelltiterGlo, 72 h)
Experimental: (§1) • (1) Cell plating: first, tumor cells MDA-MB-468 were cultured using a corresponding culture medium, trypsinized, centrifuged, resuspended for counting, adjusted to an appropriate concentration, and then plated on a 384-well plate. • (2) Co-incubation of the compounds and tumor cells: after the cells adhered to the wall, 100 nL of a diluted bioactive substance (test compound) was added to the cell culture plate using ECHO, the final concentration of DMSO in wells of the cell plate was 0.33%, and the incubation was performed in an incubator at 37° C. with 0% CO2 for 72 h. • (3) After the incubation was complete, 30 μL of a CTG reagent (CelltiterGlo kit) was added to each well. The culture was oscillated on a fast oscillator for 2 min, centrifuged at 1,000 rpm for 1 min, and kept away from light at room temperature for 30 min. The chemiluminescence signal value was read using an Envision instrument. • (4) Cell viability detection: IC50 was calculated using GraphPad Prism 8 software, and the IC50 of the compounds was obtained using the following nonlinear fitting formula (see Table 2):
[formula] • Y: inhibition rate: X: log value of compound concentration;
(§2) [formula] • high-reading control wells: cells with addition of 100 nL DMSO; and • low-reading control wells: cell-free wells.

[2] = tested on: SK-BR-3; assay: Inhibition of proliferation of cells SK-BR-3 (CelltiterGlo, 72 h)
Experimental: as §1, with “SK-BR-3” for “MDA-MB-468”, “5%” for “0%”, “1):” for “2):”
[formula] • Y: inhibition rate; X: log value of compound concentration-,
as §2

[3] = tested on: NCI-N87; assay: Inhibition of proliferation of cells NCI-N87 (CelltiterGlo, 72 h)
Experimental: as §1, with “NCI-N87” for “MDA-MB-468”, “3):” for “2):”
[formula] • Y: inhibition rate, X: log value of compound concentration;
as §2

[4] = Homo sapiens, MDA-MB-468, 72 h, read-out: IC50 (nM), antiproliferative activity on MDA-MB-468, MDA-MB-468 cells, 72 h, CTG
[5] = Homo sapiens, SK-BR-3, 72 h, read-out: IC50 (nM), antiproliferative activity on SK-BR-3, SK-BR-3 cells, 72 h, CTG
[6] = Homo sapiens, NCI-N87, 72 h, read-out: IC50 (nM), antiproliferative activity on cells NCI-N87, NCI-N87 cells, 72 h, CTG
[7] = MDA-MB-468 cells, 72 h, CTG, read-out: IC50 (nM), antiproliferative activity on MDA-MB-468
[8] = NCI-N87 cells, 72 h, CTG, read-out: IC50 (nM), antiproliferative activity on cells NCI-N87

Molecule | IC50 [1, 4] [nM] | IC50 [2, 5] [nM] | IC50 [3, 6] [nM] | IC50 [1, 7] [nM] | IC50 [3, 8] [nM] | further results
CC[C@@]1(O)C(=O)OCc2c1cc1n(c2=O)Cc2c-1nc1cc(F)c(C)c3c1c2[C@@H](NC(=O)[C@H]1C[C@@H](O)C1)CCC3 [Compound 10, (1S,3R)—N-((1S,10S)-10-ethyl-6-fluoro-10-hydroxy-5-methyl-11,14-dioxo-1,2,3,4,10,11,14,16-octahydro-13H-cyclohepta[de]pyrano[3′,4′:6,7]indolizino[1,2-b]quinolin-1-yl)-3-hydroxycyclobutane-1-carboxamide] | 13 | 10 | 23 |  |  | 
CC[C@@]1(O)C(=O)OCc2c1cc1n(c2=O)Cc2c-1nc1cc(F)c(C)c3c1c2[C@@H](NC(=O)[C@H](O)C1CC1)CCC3 [Compound 11-1, (R)-2-cyclopropyl-N-((1S,10S)-10-ethyl-6-fluoro-10-hydroxy-5-methyl-11,14-dioxo-1,2,3,4,10,11,14,16-octahydro-13H-cyclohepta[de]pyrano[3′,4′:6,7]indolizino[1,2-b]quinolin-1-yl)-2-hydroxyacetamide] |  |  |  |  |  | IC50 ([1]; Homo sapiens, MDA-MB-468 cells, 72 h, CTG, read-out: IC50 (nM), antiproliferative activity on MDA-MB-468): 3.9 nM; IC50 ([2]; Homo sapiens, SK-BR-3 cells, 72 h, CTG, read-out: IC50 (nM), antiproliferative activity on SK-BR-3): 2.2 nM; IC50 ([3]; Homo sapiens, NCI-N87 cells, 72 h, CTG, read-out: IC50 (nM), antiproliferative activity on cells NCI-N87): 2.5 nM
C=Cc1c(F)cc2nc3c(c4c2c1CC[C@@H]4NC(=O)[C@H]1C[C@@H](O)C1)Cn1c-3cc2c(c1=O)COC(=O)[C@]2(O)CC [Compound 12, (1S,3R)—N-((1S,9S)-9-ethyl-5-fluoro-9-hydroxy-10,13-dioxo-4-ethenyl-2,3,9,10,13,15-hexahydro-1H,12H-benzo[d]pyrano[3′,4′:6,7]indolizino[1,2-b]quinolin-1-yl)-3-hydroxycyclobutane-1-carboxamide] | 9.3 | 5.7 | 20 |  |  | 
CC[C@@]1(O)C(=O)OCc2c1cc1n(c2=O)Cc2c-1nc1cc(F)c(C3CC3)c3c1c2C(NC(=O)[C@H]1C[C@@H](O)C1)CC3 (stereo partly drawn) [Compound 18-1, (1S,3S)—N-((1R,9S)-4-cyclopropyl-9-ethyl-5-fluoro-9-hydroxy-10,13-dioxo-2,3,9,10,13,15-hexahydro-1H,12H-benzo[d]pyrano[3′,4′:6,7]indolizino[1,2-b]quinolin-1-yl)-3-hydroxycyclobutane-1-carboxamide] |  | 13.8 | 11.2 |  |  | 
CC[C@@]1(O)C(=O)OCc2c1cc1n(c2=O)Cc2c-1nc1cc(F)c(C3CC3)c3c1c2[C@@H](NC(=O)[C@H](O)C1CC1)CCC3 [Compound 33-1, (R)-2-cyclopropyl-N-((1S,10S)-5-cyclopropyl-10-ethyl-6-fluoro-10-hydroxy-11,14-dioxo-1,2,3,4,10,11,14,16-octahydro-13H-cyclohepta[3′,4′:6,7]indolizino[1,2-b]quinolin-1-yl)-2-hydroxyacetamide] |  |  |  | 6 | 8 | 
CC[C@@]1(O)C(=O)OCc2c1cc1n(c2=O)Cc2c-1nc1cc(F)c(C3CC3)c3c1c2[C@@H](NC(=O)[C@@H](O)C1CC1)CCC3 [Compound 33-2, (S)-2-cyclopropyl-N-((1S,10S)-5-cyclopropyl-10-ethyl-6-fluoro-10-hydroxy-11,14-dioxo-1,2,3,4,10,11,14,16-octahydro-13H-cyclohepta[3′,4′:6,7]indolizino[1,2-b]quinolin-1-yl)-2-hydroxyacetamide] |  |  |  | 5 | 9 | 
CC[C@@]1(O)C(=O)OCc2c1cc1n(c2=O)Cc2c-1nc1cc(F)c(C3CC3)c3c1c2[C@@H](NC(=O)C[C@H](O)C1CC1)CC3 [Compound 34-1, (S)-3-cyclopropyl-N-((1S,9S)-4-cyclopropyl-9-ethyl-5-fluoro-9-hydroxy-10,13-dioxo-2,3,9,10,13,15-hexahydro-1H,12H-benzo[d]pyrano[3′,4′:6,7]indolizino[1,2-b]quinolin-1-yl)-3-hydroxypropanamide] |  |  |  | 4 | 6 | 
CC[C@@]1(O)C(=O)OCc2c1cc1n(c2=O)Cc2c-1nc1cc(F)c(C3CC3)c3c1c2[C@@H](NC(=O)C[C@@H](O)C1CC1)CC3 [Compound 34-2, (R)-3-cyclopropyl-N-((1S,9S)-4-cyclopropyl-9-ethyl-5-fluoro-9-hydroxy-10,13-dioxo-2,3,9,10,13,15-hexahydro-1H,12H-benzo[d]pyrano[3′,4′:6,7]indolizino[1,2-b]quinolin-1-yl)-3-hydroxypropanamide] | 4 | 4.8 | 6 |  |  | 
CC[C@@]1(O)C(=O)OCc2c1cc1n(c2=O)Cc2c-1nc1cc(F)c(C)c3c1c2[C@@H](NC(=O)[C@@H](C)[C@@H](C)O)CCC3 [Compound 39, (2S,3R)—N-((1S,10S)-10-ethyl-6-fluoro-10-hydroxy-5-methyl-11,14-dioxo-1,2,3,4,10,11,14,16-octahydro-13H-cyclohepta[3′,4′:6,7]indolizino[1,2-b]quinolin-1-yl)-3-hydroxy-2-methylbutanamide] | 15 | 11 | 9.3 |  |  | 
(1S,3S)—N-((1R,10S)-5-cyclopropyl-10-ethyl-6-fluoro-10-hydroxy-11,14-dioxo-1,2,3,4,10,11,14,16-octahydro-13H-cyclohepta[de]pyrano[3′,4′:6,7]indolizino[1,2-b]quinolin-1-yl)-3-hydroxybutane-1-carboxamide [Compound 20-1] |  |  |  | 15.6 | 26 | IC50 ([2]; SK-BR-3 cells, 72 h, CTG, read-out: IC50 (nM), antiproliferative activity on SK-BR-3): 21 nM
(S)—N-((1S,10S)-10-ethyl-6-fluoro-10-hydroxy-5-methyl-11,14-dioxo-1,2,3,4,10,11,14,16-octahydro-13H-cyclohepta[3′,4′:6,7]indolizino[1,2-b]quinolin-1-yl)-3-hydroxy-4-methylpentanamide [Compound 37-1] |  |  |  | 19 |  | 
